Paper PMC4728505 (Marine Drugs, 2015)
*1 amine or outer side, *2 acyl side, *3 side chain or, on linkers, in order; H or OH if unused. Where a SMILES comes first, the peptide text is derived from it. Bridges are numbered along the chain shown (N, C = ends). [ ]: non-standard residue; d: D form. NMehTyr = CN[C@@H](CCc1ccc(O)cc1)C(=O)O; hTyr = N[C@@H](CCc1ccc(O)cc1)C(=O)O; NMeA = CN[C@@H](C)C(=O)O; CO = O=C([*:1])[*:2]

Experiments:
protein phosphatase 1 = biological target: T1, protein phosphatase 1 (Oryctolagus cuniculus, UniProt P62139); test: biochemical; assay type: biochemical; conditions: for PP1 inhibition (in words): acquired standards
T1 construct: purchased New England Biolabs

carboxypeptidase A [1] = biological target: T2, carboxypeptidase A (Bos taurus, UniProt P00730); test: Carboxypeptidase A inhibition assay; assay type: biochemical; conditions: acquired standards
T2 construct: purchased Sigma-Aldrich C9268
T2 sequence (P00730 111-419): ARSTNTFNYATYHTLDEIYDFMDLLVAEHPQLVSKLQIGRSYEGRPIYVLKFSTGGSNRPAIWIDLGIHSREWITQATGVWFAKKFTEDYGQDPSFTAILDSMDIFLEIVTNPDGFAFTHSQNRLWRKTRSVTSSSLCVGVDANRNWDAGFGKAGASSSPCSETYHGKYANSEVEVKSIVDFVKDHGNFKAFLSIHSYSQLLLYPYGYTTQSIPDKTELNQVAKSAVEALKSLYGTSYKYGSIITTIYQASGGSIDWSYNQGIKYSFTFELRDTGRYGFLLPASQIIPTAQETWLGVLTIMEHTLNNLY
From the text: The following reagents used for enzymatic assays were purchased from Sigma-Aldrich: trypsin (product number T0303), thrombin bovine plasma (T4648), elastase (E0258), carboxypeptidase A (C9268), aprotinine (A6103), N-p-tosyl-Gly-Pro-Lys-p-nitroanilide acetate salt (T6140), N-Succinyl-Gly-Gly-Phe-p-nitroanilide (S1899), 4-(2-Aminoethyl) benzenesulfonyl fluoride hydrochloride—AEBSF (A8456), elastatinal (E0881), N-Succinyl-Ala-Ala-Ala-p-nitroanilide (S4760), carboxypeptidase inhibitor—CPI (C0297), p-nitrophenyl phosphate disodium salt hexahydrate—p-NPP (71768), albumin bovine—BSA (A4503) and DL-dithiothreitol DTT (D0632).
APs were assayed for bioactivity by protein phosphatase 1, carboxypeptidase A, trypsin, elastase and thrombin inhibition assays as described in Mazur-Marzec et al. 2015 [50].

[2] = test system: PP1 (from rabbit skeletal muscle); conditions: cited from earlier work; for PP1 inhibition reported (in words): PP1 from rabbit skeletal muscle
carboxypeptidase A [3] = biological target: T2, carboxypeptidase A; design: method as in PMID 11000037; conditions: read-out: CPA IC50 (converted); cited from earlier work

T1 sequence (P62139 whole entry): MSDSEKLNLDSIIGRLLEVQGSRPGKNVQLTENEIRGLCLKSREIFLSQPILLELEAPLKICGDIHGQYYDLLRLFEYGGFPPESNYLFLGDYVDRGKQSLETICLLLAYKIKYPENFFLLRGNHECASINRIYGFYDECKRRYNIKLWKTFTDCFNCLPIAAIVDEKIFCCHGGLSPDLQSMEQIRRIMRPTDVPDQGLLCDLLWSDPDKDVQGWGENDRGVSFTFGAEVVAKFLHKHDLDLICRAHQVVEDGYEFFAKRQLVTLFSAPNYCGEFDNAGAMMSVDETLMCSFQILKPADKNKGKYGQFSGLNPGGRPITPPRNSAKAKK

## CC[C@H](C)[C@H](NC(=O)N[C@@H]1CCCCNC(=O)[C@H](Cc2ccccc2)NC(=O)[C@H](C)N(C)C(=O)[C@H](CCc2ccc(O)cc2)NC(=O)[C@H](C(C)C)NC1=O)C(=O)O [Anabaenopeptin J] ({Ile-CO}-[dK]V[hTyr][NMeA]F; lactam 1-C)
Protein phosphatase 1
  PP1 inhibition (in words): showed inhibition
Carboxypeptidase A [1]
  Activity against CPA (in words): active

## CC[C@H](C)[C@@H]1NC(=O)[C@H](NC(=O)N[C@@H](CCCNC(=N)N)C(=O)O)CCCCNC(=O)[C@H](Cc2ccccc2)NC(=O)[C@H](CCc2ccc(O)cc2)N(C)C(=O)[C@H](CCc2ccc(O)cc2)NC1=O [Osc C] ({Arg-CO}-[dK]I[hTyr][NMehTyr]F; lactam 1-C)
[2]
  PP1 inhibition reported (in words): inhibition
  IC50: 900 nM

## CSCC[C@@H]1NC(=O)[C@H](NC(=O)N[C@@H](CCCNC(=N)N)C(=O)O)CCCCNC(=O)[C@H](Cc2ccccc2)NC(=O)[C@H](C)N(C)C(=O)[C@H](CCc2ccc(O)cc2)NC1=O [oscillamide B] ({Arg-CO}-[dK]M[hTyr][NMeA]F; lactam 1-C)
[2]
  PP1 inhibition reported (in words): inhibition

## CC[C@H](C)[C@@H]1NC(=O)[C@H](NC(=O)N[C@@H](CCCNC(=N)N)C(=O)O)CCCCNC(=O)[C@H](Cc2ccccc2)NC(=O)[C@H](C)N(C)C(=O)[C@H](CCc2ccc(O)cc2)NC1=O [anabaenopeptin F] ({Arg-CO}-[dK]I[hTyr][NMeA]F; lactam 1-C)
[2]
  PP1 inhibition reported (in words): inhibition

## CC[C@H](C)[C@@H]1NC(=O)[C@H](NC(=O)N[C@@H](CCCNC(=N)N)C(=O)O)CCCCNC(=O)[C@H]([C@@H](C)CC)NC(=O)[C@H](CCc2ccc(O)cc2)N(C)C(=O)[C@H](CCc2ccc(O)cc2)NC1=O [anabaenopeptin H] ({Arg-CO}-[dK]I[hTyr][NMehTyr]I; lactam 1-C)
Carboxypeptidase A [3]
  IC50: 3.68 µM

## CC(C)[C@@H]1NC(=O)[C@H](NC(=O)N[C@@H](CCCNC(=N)N)C(=O)O)CCCCNC(=O)[C@H](Cc2ccccc2)NC(=O)[C@H](C)N(C)C(=O)[C@H](CCc2ccc(O)cc2)NC1=O [Anabaenopeptin B] ({Arg-CO}-[dK]V[hTyr][NMeA]F; lactam 1-C)
Protein phosphatase 1
  PP1 inhibition (in words): showed inhibition
[2]
  PP1 inhibition reported (in words): inhibition

## CC[C@H](C)[C@@H]1NC(=O)[C@H](NC(=O)N[C@@H](Cc2ccc(O)cc2)C(=O)O)CCCCNC(=O)[C@H](Cc2ccccc2)NC(=O)[C@H](C)N(C)C(=O)[C@H](CCc2ccc(O)cc2)NC1=O [Oscillamide Y, Tyr + CO[Lys + Ile + Hty + MeAla + Phe]] ({Tyr-CO}-[dK]I[hTyr][NMeA]F; lactam 1-C)
Protein phosphatase 1
  IC50: 72.3 nM
  PP1 inhibition (in words): showed inhibition
Carboxypeptidase A [1]
  Activity against CPA (in words): active
[2]; at 100 μg/mL
  PP1 inhibition (in words): no effect

## CC(C)C1NC(=O)C(NC(=O)NC(Cc2ccc(O)cc2)C(=O)O)CCCCNC(=O)C(Cc2ccccc2)NC(=O)C(C)N(C)C(=O)C(CCc2ccc(O)cc2)NC1=O (stereo not drawn) [Anabaenopeptin A, Tyr + CO[Lys + Val + Hty + MeAla + Phe]]
Protein phosphatase 1
  PP1 inhibition (in words): showed inhibition
[2]
  PP1 inhibition reported (in words): inhibition
